In patent publication US20210283151A1, “USE OF COMPOUND IN DRUG FOR PREVENTING, TREATING, OR ALLEVIATING PAIN” (ASCENTAWITS PHARMACEUTICALS, LTD., priority 2018, published 2021):

What was measured:
prostaglandin E2 = test: Serum prostaglandin E2 by ELISA after single intravenous infusion to cynomolgus monkeys; type: in vivo, cynomolgus monkey; details: for The measured concentration of prostaglandin E2: 1 mg/kg intravenous infusion; for The measured concentration of prostaglandin E2, Mean: mean of 3 animals, before administration 469.60
Method: (§1) An experiment with three cynomolgus monkeys was performed according to the table below.
(§2) Four male cynomolgus monkeys were purchased from Guangxi Xiongsen Primate Development and Experiment Co., Ltd., and all of them were healthy cynomolgus monkeys that had passed the physical examination and have no abnormalities. Among them, three cynomolgus monkeys were used in the experiment of administration and the remaining one was used for preparing blank plasma.
(§3) Before administration, and 6, 24, 48 and 72 hours after the start of administration, 1 mL of blood was collected from the femoral vein or other suitable vein, and placed in a blood collection tube without anticoagulant. After collected, the blood sample was placed on ice and allowed to stand for 30-60 minutes before being centrifuged at 3,500 rpm for 10 minutes at 2-8° C. to separate the serum. The collected serum was stored at −80° C. before being analyzed.
(§4) Prostaglandins E2 and F2 in serum samples were analyzed by conventional ELISA methods. The measurement results are as follows.
(§5) The concentrations of prostaglandins E2 and F2 in the serum after single administration to cynomolgus monkeys by intravenous infusion

prostaglandin F2 = test: Serum prostaglandin F2 by ELISA after single intravenous infusion to cynomolgus monkeys; type: in vivo, cynomolgus monkey; details: for The measured concentration of prostaglandin F2: 1 mg/kg intravenous infusion; for Effect on prostaglandin F2 content (in words): cynomolgus monkeys, after administration (0.58 mg/kg as printed in b199), fluctuating increase at 24 h; for The measured concentration of prostaglandin F2, Mean: mean of 3 animals, before administration 1088.09
Method: as §1, §2, §3, §4, §5

AKR1C3 = molecular target: T1, AKR1C3 (Homo sapiens, UniProt P42330); test: In vitro AKR1C3 activity: production of reduced progesterone (20α-dihydroprogesterone) by LC/MS; type: biochemical; details: reaction 30 min; for AKR1C3 activity % / activity at 5 µM: negative control = 100
T1 sequence (P42330 1-323): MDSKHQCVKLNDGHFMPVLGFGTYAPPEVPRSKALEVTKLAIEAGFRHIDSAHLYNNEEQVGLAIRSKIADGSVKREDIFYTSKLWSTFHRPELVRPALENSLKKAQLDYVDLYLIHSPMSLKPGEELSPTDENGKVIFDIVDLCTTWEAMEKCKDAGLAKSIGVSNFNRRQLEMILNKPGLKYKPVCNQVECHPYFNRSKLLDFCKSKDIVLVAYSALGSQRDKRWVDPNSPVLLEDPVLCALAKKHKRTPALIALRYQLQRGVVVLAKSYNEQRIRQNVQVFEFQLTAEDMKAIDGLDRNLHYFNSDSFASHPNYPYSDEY
Method: Experimental apparatus: Waters Acquity I Class UPLC Ultra Performance Liquid Chromatograph equipped with a Xevo G2-XS Q Tof HRMS Quadrupole Time-of-flight High-Resolution Mass Spectrometer
1. PBS phosphate buffered saline solution,
2. PBS phosphate buffered saline solution of 20 mM NADPH
3. PBS phosphate buffered saline solution of 250 μg/mL AKR1C3
5. 50% MeOH/H2O solution of 250 μM progesterone
6. 100% acetonitrile solution of 1 μg/mL propranolol
In step 1, the reaction mixtures were prepared into Eppendorf tubes in quadruplicate (n=4) according to the table below and mixed gently.
In step 2, the above mixtures were pre-incubated in duplicate at 37° C. for 30 minutes and 60 minutes.
In step 3, another 10 μL of PBS phosphate buffered saline solution of 20 mM NADPH and 2 μL of 50% MeOH/H2O solution of 250 μM progesterone were added to each Eppendorf tube and mixed gently.
In step 4, 50 μL of the mixture in the above step was immediately transferred to 100 μL of 100% acetonitrile solution of 1 μg/mL propranolol (internal standard (IS)).
In step 5, the remaining samples were incubated at 37° C. for 30 minutes, and 100 μL of 100% acetonitrile solution of 1 μg/mL propranolol (internal standard (IS)) was added.
In step 6, 100 μL of reagent water was added to all the samples, vortexed at 1,100 rpm for 5 minutes, and centrifuged at 15,000 rpm for 10 minutes at room temperature.
In step 7, all the samples were loaded on LC/MS to determine the content of reduced progesterone, namely 20α-dihydroprogesterone.
The test conditions for the LC-MS apparatus are shown below
In step 9, the reduced progesterone (20α-dihydroprogesterone) is calculated: the peak area of the reduced progesterone, namely 20α-dihydroprogesterone and propranolol, in each sample was determined by LC/MS. The peak area ratios of reduced progesterone to propranolol (i.e., the ratios in the above table) were calculated, and when the time is 0 the ratio is set to 0%.
AKR1C3 activity (%)=[(the amount of reduced progesterone after normalization of the sample) 30 min−(the amount of reduced progesterone after normalization of the sample) 0 min]/[(the amount of reduced progesterone after normalization of the negative control group) 30 min−(the amount of reduced progesterone after normalization of the negative control group) 0 min]*100.
The AKR1C3 activity results in the above table were calculated according to the above formula.

[1] = animal 101, 6 h after start of administration
[2] = animal 101, 24 h after start of administration
[3] = animal 101, 48 h after start of administration
[4] = animal 101, 72 h after start of administration
[5] = animal 102, 6 h after start of administration
[6] = animal 102, 24 h after start of administration
[7] = animal 102, 48 h after start of administration
[8] = animal 102, 72 h after start of administration
[9] = animal 103, 6 h after start of administration
[10] = animal 103, 24 h after start of administration
[11] = animal 103, 48 h after start of administration
[12] = animal 103, 72 h after start of administration
[13] = 5 μM AST-3424, pre-incubation 30 min at 37° C.
[14] = 5 μM AST-3424, pre-incubation 60 min at 37° C.

- Peak area ratio of reduced progesterone to propranolol (AKR1C3; pre-incubation 30 min, negative control 0.1506): 0.0074
- Peak area ratio of reduced progesterone to propranolol (AKR1C3; pre-incubation 60 min, negative control 0.1343): 0.0137
SMILES: C[C@H](OP(=O)(N1CC1)N1CC1)c1ccc([N+](=O)[O-])c(Oc2cccc(C(=O)N(C)C)c2)c1 [AST-3424]
- The measured concentration of prostaglandin E2 (prostaglandin E2; [1]): 210.67 pg/mL
- The measured concentration of prostaglandin E2 (prostaglandin E2; [2]): 450.48 pg/mL
- The measured concentration of prostaglandin E2 (prostaglandin E2; [3]): 322.13 pg/mL
- The measured concentration of prostaglandin E2 (prostaglandin E2; [4]): 408.15 pg/mL
- The measured concentration of prostaglandin E2 (prostaglandin E2; [5]): 214.73 pg/mL
- The measured concentration of prostaglandin E2 (prostaglandin E2; [6]): 822.21 pg/mL
- The measured concentration of prostaglandin E2 (prostaglandin E2; [7]): 168.84 pg/mL
- The measured concentration of prostaglandin E2 (prostaglandin E2; [8]): 521.78 pg/mL
- The measured concentration of prostaglandin E2 (prostaglandin E2; [9]): 670.73 pg/mL
- The measured concentration of prostaglandin E2 (prostaglandin E2; [10]): 2735.20 pg/mL
- The measured concentration of prostaglandin E2 (prostaglandin E2; [11]): 276.35 pg/mL
- The measured concentration of prostaglandin E2 (prostaglandin E2; [12]): 663.03 pg/mL
- Effect on prostaglandin E2 content (in words) (prostaglandin E2; cynomolgus monkeys, after administration (0.58 mg/kg), fluctuating increase at 24 h): decreased
- The measured concentration of prostaglandin E2, Mean (prostaglandin E2; 6 h): 365.38 pg/mL
- The measured concentration of prostaglandin E2, Mean (prostaglandin E2; 24 h): 1335.97 pg/mL
- The measured concentration of prostaglandin E2, Mean (prostaglandin E2; 48 h): 255.78 pg/mL
- The measured concentration of prostaglandin E2, Mean (prostaglandin E2; 72 h): 530.99 pg/mL
- The measured concentration of prostaglandin F2 (prostaglandin F2; [1]): 165.32 pg/mL
- The measured concentration of prostaglandin F2 (prostaglandin F2; [2]): 816.63 pg/mL
- The measured concentration of prostaglandin F2 (prostaglandin F2; [3]): 183.73 pg/mL
- The measured concentration of prostaglandin F2 (prostaglandin F2; [4]): 441.76 pg/mL
- The measured concentration of prostaglandin F2 (prostaglandin F2; [5]): 260.80 pg/mL
- The measured concentration of prostaglandin F2 (prostaglandin F2; [6]): 3460.25 pg/mL
- The measured concentration of prostaglandin F2 (prostaglandin F2; [7]): 216.12 pg/mL
- The measured concentration of prostaglandin F2 (prostaglandin F2; [8]): 968.01 pg/mL
- The measured concentration of prostaglandin F2 (prostaglandin F2; [9]): 300.65 pg/mL
- The measured concentration of prostaglandin F2 (prostaglandin F2; [10]): 4208.19 pg/mL
- The measured concentration of prostaglandin F2 (prostaglandin F2; [11]): 541.05 pg/mL
- The measured concentration of prostaglandin F2 (prostaglandin F2; [12]): 1369.67 pg/mL
- Effect on prostaglandin F2 content (in words) (prostaglandin F2; 0.58 mg/kg): greatly reduce the content of PGF2
- Effect on prostaglandin F2 content (in words) (prostaglandin F2; listed as AST3424, 0.58 mg/kg): decreased
- The measured concentration of prostaglandin F2, Mean (prostaglandin F2; 6 h): 242.26 pg/mL
- The measured concentration of prostaglandin F2, Mean (prostaglandin F2; 24 h): 2828.36 pg/mL
- The measured concentration of prostaglandin F2, Mean (prostaglandin F2; 48 h): 313.63 pg/mL
- The measured concentration of prostaglandin F2, Mean (prostaglandin F2; 72 h): 926.48 pg/mL
- AKR1C3 activity % (AKR1C3; [13]): 3.9%
- activity at 5 µM (AKR1C3; [13]): 3.9%
- AKR1C3 activity % (AKR1C3; [14]): 9.2%
- activity at 5 µM (AKR1C3; [14]): 9.2%
